From paper PMC6886798, “Expression of myeloid Src-family kinases is associated with poor prognosis in AML and influences Flt3-ITD kinase inhibitor acquired resistance” (PLoS ONE, 2019)

Key:
Test in all cases: KINOMEscan
Assay type in all cases: binding
Conditions in all cases: 1.0 µM
[1] = biological target: T1, MYO3A (Homo sapiens, UniProt Q8NEV4)
T1 construct: purchased Eurofins/DiscoverX KINOMEscan scanMAX
Protocol: (§1) Kinase retention to the immobilized ligand is then measured using quantitative real-time PCR for each kinase-specific DNA barcode.

[2] = biological target: T2, LATS1 (Homo sapiens, UniProt O95835)
T2 construct: purchased Eurofins/DiscoverX KINOMEscan scanMAX
Protocol: as §1

[3] = biological target: T3, ERK2 (Homo sapiens, UniProt P28482)
T3 construct: purchased Eurofins/DiscoverX KINOMEscan scanMAX
Protocol: as §1

[4] = biological target: T4, RSK4(Kin.Dom.1-N-terminal) (Homo sapiens, UniProt Q9UK32)
T4 construct: RSK4(Kin.Dom.1-N-terminal); purchased Eurofins/DiscoverX KINOMEscan scanMAX
Protocol: as §1

[5] = biological target: T5, S6K1 (Homo sapiens, UniProt P23443)
T5 construct: purchased Eurofins/DiscoverX KINOMEscan scanMAX
Protocol: as §1

[6] = biological target: T6, KIT(V559D) (Homo sapiens, UniProt P10721, V559D)
T6 construct: purchased Eurofins/DiscoverX KINOMEscan scanMAX
Protocol: as §1

[7] = biological target: T7, ERBB3 (Homo sapiens, UniProt P21860)
T7 construct: purchased Eurofins/DiscoverX KINOMEscan scanMAX
Protocol: as §1

[8] = biological target: T8, GRK7 (Homo sapiens, UniProt Q8WTQ7)
T8 construct: purchased Eurofins/DiscoverX KINOMEscan scanMAX
Protocol: as §1

[9] = biological target: T9, TRKA (Homo sapiens, UniProt P04629)
T9 construct: purchased Eurofins/DiscoverX KINOMEscan scanMAX
Protocol: as §1

[10] = biological target: T10, EPHA4 (Homo sapiens, UniProt P54764)
T10 construct: purchased Eurofins/DiscoverX KINOMEscan scanMAX
Protocol: as §1

[11] = biological target: T11, PFTK1 (Homo sapiens, UniProt O94921)
T11 construct: purchased Eurofins/DiscoverX KINOMEscan scanMAX
Protocol: as §1

[12] = biological target: T12, BRSK2 (Homo sapiens, UniProt Q8IWQ3)
T12 construct: purchased Eurofins/DiscoverX KINOMEscan scanMAX
Protocol: as §1

[13] = biological target: T13, PIKFYVE (Homo sapiens, UniProt Q9Y2I7)
T13 construct: purchased Eurofins/DiscoverX KINOMEscan scanMAX
Protocol: as §1

[14] = biological target: T14, ACVR2A (Homo sapiens, UniProt P27037)
T14 construct: purchased Eurofins/DiscoverX KINOMEscan scanMAX
Protocol: as §1

[15] = biological target: T15, AURKB (Homo sapiens, UniProt Q96GD4)
T15 construct: purchased Eurofins/DiscoverX KINOMEscan scanMAX
Protocol: as §1

[16] = biological target: T16, PLK2 (Homo sapiens, UniProt Q9NYY3)
T16 construct: purchased Eurofins/DiscoverX KINOMEscan scanMAX
Protocol: as §1

[17] = biological target: T17, RAF1 (Homo sapiens, UniProt P04049)
T17 construct: purchased Eurofins/DiscoverX KINOMEscan scanMAX
Protocol: as §1

[18] = biological target: T18, MAP3K1 (Homo sapiens, UniProt Q13233)
T18 construct: purchased Eurofins/DiscoverX KINOMEscan scanMAX
Protocol: as §1

[19] = biological target: T19, TXK (Homo sapiens, UniProt P42681)
T19 construct: DNA tag (qPCR barcode); purchased Eurofins/DiscoverX KINOMEscan scanMAX
Protocol: as §1

[20] = biological target: T20, MAP4K5 (Homo sapiens, UniProt Q9Y4K4)
T20 construct: purchased Eurofins/DiscoverX KINOMEscan scanMAX
Protocol: as §1

[21] = biological target: T21, MEK4 (Homo sapiens, UniProt P45985)
T21 construct: purchased Eurofins/DiscoverX KINOMEscan scanMAX
Protocol: as §1

[22] = biological target: T22, SNRK (Homo sapiens, UniProt Q9NRH2)
T22 construct: purchased Eurofins/DiscoverX KINOMEscan scanMAX
Protocol: as §1

[23] = biological target: T23, IRAK3 (Homo sapiens, UniProt Q9Y616)
T23 construct: purchased Eurofins/DiscoverX KINOMEscan scanMAX
Protocol: as §1

[24] = biological target: T24, FLT3(D835Y) (Homo sapiens, UniProt P36888, D835Y)
T24 construct: purchased Eurofins/DiscoverX KINOMEscan scanMAX
Protocol: as §1

[25] = biological target: T25, PKN2 (Homo sapiens, UniProt Q16513)
T25 construct: purchased Eurofins/DiscoverX KINOMEscan scanMAX
Protocol: as §1

[26] = biological target: T26, ERK1 (Homo sapiens, UniProt P27361)
T26 construct: purchased Eurofins/DiscoverX KINOMEscan scanMAX
Protocol: as §1

[27] = biological target: T27, PIK4CB (Homo sapiens, UniProt Q9UBF8)
T27 construct: purchased Eurofins/DiscoverX KINOMEscan scanMAX
Protocol: as §1

[28] = biological target: T28, MET(Y1235D) (Homo sapiens, UniProt P08581, Y1235D)
T28 construct: purchased Eurofins/DiscoverX KINOMEscan scanMAX
Protocol: as §1

[29] = biological target: T29, PAK7 (Homo sapiens, UniProt Q9P286)
T29 construct: purchased Eurofins/DiscoverX KINOMEscan scanMAX
Protocol: as §1

[30] = biological target: T30, PKAC-beta (Homo sapiens, UniProt P22694)
T30 construct: purchased Eurofins/DiscoverX KINOMEscan scanMAX
Protocol: as §1

[31] = biological target: T31, TYK2(JH1domain-catalytic) (Homo sapiens, UniProt P29597)
T31 construct: TYK2(JH1domain-catalytic); DNA tag (qPCR barcode); purchased Eurofins/DiscoverX KINOMEscan scanMAX
Protocol: as §1

[32] = biological target: T32, ABL1-phosphorylated (Homo sapiens, UniProt P00519)
T32 construct: purchased Eurofins/DiscoverX KINOMEscan scanMAX
Protocol: as §1

[33] = biological target: T33, RSK2(Kin.Dom.1-N-terminal) (Homo sapiens, UniProt P51812)
T33 construct: RSK2(Kin.Dom.1-N-terminal); purchased Eurofins/DiscoverX KINOMEscan scanMAX
Protocol: as §1

[34] = biological target: T34, MST3 (Homo sapiens, UniProt Q9Y6E0)
T34 construct: purchased Eurofins/DiscoverX KINOMEscan scanMAX
Protocol: as §1

[35] = biological target: T35, HUNK (Homo sapiens, UniProt P57058)
T35 construct: purchased Eurofins/DiscoverX KINOMEscan scanMAX
Protocol: as §1

[36] = biological target: T36, CSNK1G2 (Homo sapiens, UniProt P78368)
T36 construct: purchased Eurofins/DiscoverX KINOMEscan scanMAX
Protocol: as §1

[37] = biological target: T37, FLT1 (Homo sapiens, UniProt P17948)
T37 construct: purchased Eurofins/DiscoverX KINOMEscan scanMAX
Protocol: as §1

[38] = biological target: T38, RET(V804M) (Homo sapiens, UniProt P07949, V804M)
T38 construct: purchased Eurofins/DiscoverX KINOMEscan scanMAX
Protocol: as §1

[39] = biological target: T39, GRK2 (Homo sapiens, UniProt P25098)
T39 construct: purchased Eurofins/DiscoverX KINOMEscan scanMAX
Protocol: as §1

[40] = biological target: T40, CDC2L1 (Homo sapiens, UniProt P21127)
T40 construct: purchased Eurofins/DiscoverX KINOMEscan scanMAX
Protocol: as §1

[41] = biological target: T41, MEK3 (Homo sapiens, UniProt P46734)
T41 construct: purchased Eurofins/DiscoverX KINOMEscan scanMAX
Protocol: as §1

T18 sequence (Q13233 whole entry): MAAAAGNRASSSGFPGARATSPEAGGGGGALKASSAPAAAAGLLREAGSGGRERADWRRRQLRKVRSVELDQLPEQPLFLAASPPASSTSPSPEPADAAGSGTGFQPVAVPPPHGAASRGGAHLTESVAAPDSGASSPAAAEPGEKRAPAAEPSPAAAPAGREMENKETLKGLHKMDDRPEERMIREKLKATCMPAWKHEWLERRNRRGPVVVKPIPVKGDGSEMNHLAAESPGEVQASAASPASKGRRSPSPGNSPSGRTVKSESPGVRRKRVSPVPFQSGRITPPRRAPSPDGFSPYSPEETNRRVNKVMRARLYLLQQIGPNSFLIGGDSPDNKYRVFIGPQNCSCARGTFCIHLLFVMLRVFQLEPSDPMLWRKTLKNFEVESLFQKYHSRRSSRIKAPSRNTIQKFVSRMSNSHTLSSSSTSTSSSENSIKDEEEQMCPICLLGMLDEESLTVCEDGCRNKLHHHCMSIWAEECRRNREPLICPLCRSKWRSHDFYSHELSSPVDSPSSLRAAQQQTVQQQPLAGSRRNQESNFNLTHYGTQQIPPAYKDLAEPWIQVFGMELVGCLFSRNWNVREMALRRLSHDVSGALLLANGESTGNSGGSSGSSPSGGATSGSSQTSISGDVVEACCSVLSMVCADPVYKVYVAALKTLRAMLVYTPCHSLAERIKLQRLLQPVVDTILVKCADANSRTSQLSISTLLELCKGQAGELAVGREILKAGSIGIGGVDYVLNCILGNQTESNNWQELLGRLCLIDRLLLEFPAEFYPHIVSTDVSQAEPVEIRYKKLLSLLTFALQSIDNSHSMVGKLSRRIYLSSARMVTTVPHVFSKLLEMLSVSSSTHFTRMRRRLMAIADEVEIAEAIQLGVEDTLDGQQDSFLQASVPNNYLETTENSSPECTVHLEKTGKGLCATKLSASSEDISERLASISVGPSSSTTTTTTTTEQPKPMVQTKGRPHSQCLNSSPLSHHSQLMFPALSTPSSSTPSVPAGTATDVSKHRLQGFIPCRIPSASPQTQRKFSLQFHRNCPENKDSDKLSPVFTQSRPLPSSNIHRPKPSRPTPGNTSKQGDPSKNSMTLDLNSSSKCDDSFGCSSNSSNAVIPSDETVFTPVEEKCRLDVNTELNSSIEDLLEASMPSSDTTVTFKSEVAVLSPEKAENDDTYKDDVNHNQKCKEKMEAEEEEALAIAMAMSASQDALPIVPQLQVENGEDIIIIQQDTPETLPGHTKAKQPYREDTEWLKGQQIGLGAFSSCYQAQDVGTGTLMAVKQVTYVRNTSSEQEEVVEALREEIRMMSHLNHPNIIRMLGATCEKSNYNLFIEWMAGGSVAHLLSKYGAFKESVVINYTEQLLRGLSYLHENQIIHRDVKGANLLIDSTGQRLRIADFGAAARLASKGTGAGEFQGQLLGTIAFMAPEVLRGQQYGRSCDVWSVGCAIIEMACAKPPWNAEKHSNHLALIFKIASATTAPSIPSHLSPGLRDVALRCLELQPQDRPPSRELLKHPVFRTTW
T13 sequence (Q9Y2I7 whole entry): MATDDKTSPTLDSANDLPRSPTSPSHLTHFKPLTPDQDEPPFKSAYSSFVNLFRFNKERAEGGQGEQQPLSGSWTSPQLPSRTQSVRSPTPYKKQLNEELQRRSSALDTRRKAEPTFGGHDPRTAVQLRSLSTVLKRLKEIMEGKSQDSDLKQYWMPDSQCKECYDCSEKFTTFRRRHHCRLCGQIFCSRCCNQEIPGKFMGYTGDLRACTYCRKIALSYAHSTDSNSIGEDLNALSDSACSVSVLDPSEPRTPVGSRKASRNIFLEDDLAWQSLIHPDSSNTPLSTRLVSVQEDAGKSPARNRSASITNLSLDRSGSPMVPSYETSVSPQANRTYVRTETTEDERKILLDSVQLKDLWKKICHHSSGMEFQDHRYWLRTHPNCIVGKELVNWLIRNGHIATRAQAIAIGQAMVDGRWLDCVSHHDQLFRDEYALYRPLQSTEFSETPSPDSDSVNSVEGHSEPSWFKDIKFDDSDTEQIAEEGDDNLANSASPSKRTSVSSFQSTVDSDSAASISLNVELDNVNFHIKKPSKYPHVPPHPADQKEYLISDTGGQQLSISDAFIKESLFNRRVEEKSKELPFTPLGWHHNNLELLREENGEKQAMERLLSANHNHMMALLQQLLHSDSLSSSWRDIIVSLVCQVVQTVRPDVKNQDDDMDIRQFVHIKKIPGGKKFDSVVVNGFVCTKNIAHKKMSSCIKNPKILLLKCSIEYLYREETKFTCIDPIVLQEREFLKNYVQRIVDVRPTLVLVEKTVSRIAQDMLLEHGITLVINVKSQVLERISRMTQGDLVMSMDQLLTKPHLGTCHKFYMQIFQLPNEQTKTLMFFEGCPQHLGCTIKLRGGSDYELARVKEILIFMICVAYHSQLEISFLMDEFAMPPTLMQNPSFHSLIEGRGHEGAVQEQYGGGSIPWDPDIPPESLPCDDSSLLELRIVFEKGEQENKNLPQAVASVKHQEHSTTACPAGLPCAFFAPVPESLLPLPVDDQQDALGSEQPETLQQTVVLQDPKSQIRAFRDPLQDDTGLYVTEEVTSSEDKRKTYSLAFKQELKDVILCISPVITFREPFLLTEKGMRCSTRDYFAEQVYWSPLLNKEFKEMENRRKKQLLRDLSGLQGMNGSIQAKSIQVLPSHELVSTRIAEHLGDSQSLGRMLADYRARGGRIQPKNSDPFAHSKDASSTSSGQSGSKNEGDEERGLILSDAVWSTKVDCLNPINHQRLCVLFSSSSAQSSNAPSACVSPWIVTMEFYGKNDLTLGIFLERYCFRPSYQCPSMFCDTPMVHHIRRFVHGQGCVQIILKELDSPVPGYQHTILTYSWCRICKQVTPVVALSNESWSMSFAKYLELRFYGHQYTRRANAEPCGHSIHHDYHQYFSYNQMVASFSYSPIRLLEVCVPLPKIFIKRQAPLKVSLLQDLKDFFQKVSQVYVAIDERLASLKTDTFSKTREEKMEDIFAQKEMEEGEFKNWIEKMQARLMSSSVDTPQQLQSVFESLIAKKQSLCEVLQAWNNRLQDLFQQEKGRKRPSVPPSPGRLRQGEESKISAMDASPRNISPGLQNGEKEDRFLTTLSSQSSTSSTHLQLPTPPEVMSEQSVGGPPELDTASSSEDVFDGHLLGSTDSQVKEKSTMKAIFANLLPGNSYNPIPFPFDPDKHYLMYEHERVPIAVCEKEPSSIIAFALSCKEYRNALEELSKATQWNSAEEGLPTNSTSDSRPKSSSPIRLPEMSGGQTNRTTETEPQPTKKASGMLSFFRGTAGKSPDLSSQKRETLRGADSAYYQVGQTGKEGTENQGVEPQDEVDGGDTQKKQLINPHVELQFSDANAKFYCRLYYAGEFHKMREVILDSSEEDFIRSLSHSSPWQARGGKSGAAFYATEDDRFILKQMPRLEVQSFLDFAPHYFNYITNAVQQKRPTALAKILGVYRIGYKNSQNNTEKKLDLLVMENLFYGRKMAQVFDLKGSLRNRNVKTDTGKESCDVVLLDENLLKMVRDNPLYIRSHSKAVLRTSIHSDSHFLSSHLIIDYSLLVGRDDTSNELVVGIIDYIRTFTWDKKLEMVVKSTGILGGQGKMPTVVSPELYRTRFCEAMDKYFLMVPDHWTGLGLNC
T32 sequence (P00519 whole entry): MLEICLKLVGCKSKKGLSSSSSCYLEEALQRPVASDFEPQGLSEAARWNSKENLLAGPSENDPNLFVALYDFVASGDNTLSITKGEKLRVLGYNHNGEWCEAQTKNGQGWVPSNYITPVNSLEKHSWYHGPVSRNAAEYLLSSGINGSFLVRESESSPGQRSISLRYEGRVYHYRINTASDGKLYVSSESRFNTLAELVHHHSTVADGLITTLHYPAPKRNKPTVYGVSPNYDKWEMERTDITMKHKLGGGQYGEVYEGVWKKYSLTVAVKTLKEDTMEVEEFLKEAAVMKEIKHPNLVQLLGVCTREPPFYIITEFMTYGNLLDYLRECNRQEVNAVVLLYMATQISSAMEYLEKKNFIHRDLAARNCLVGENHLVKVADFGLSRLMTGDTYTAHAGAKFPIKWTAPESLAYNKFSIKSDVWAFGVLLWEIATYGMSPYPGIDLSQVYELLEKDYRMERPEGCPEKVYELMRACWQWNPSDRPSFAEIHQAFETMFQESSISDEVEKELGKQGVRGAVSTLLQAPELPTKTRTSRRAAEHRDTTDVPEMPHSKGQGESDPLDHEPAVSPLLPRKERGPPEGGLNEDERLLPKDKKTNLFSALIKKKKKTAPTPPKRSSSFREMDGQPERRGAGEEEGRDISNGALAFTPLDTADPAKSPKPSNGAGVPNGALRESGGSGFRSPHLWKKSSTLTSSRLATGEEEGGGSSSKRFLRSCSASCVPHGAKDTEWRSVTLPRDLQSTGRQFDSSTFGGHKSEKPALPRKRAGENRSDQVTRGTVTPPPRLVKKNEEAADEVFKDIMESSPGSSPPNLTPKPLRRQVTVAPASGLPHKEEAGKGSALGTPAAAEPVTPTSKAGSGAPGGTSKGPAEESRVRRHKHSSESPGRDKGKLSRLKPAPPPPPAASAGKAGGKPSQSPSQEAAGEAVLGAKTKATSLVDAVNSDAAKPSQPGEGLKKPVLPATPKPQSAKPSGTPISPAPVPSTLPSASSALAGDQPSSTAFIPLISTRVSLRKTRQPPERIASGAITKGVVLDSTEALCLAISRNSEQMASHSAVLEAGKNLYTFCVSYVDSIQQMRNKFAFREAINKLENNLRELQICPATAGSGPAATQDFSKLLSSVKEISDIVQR
T36 sequence (P78368 whole entry): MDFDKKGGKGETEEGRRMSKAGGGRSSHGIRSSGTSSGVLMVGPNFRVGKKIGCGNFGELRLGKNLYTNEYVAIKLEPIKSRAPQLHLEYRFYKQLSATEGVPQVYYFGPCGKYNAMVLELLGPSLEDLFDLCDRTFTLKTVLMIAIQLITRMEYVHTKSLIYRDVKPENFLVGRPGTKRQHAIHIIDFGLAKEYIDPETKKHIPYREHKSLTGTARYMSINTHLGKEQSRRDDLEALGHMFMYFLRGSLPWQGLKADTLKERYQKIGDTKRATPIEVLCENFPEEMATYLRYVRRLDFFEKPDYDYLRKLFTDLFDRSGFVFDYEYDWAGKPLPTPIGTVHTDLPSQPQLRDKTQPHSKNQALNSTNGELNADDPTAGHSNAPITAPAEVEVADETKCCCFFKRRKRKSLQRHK

Structure (SMILES): CN1CCN(C2CCC(n3cc(-c4ccc(Oc5ccccc5)cc4)c4c(N)ncnc43)CC2)CC1 (centres unmarked) [A-419259]
- % Control [1]: 2.7%
- % Control [2]: 30%
- % Control [3]: 77%
- % Control [4]: 68%
- % Control [5]: 27%
- % Control [6]: 0.05%
- % Control [7]: 0.2%
- % Control [8]: 62%
- % Control [9]: 16%
- % Control [10]: 100%
- % Control [11]: 63%
- % Control [12]: 10%
- % Control [13]: 78%
- % Control [14]: 100%
- % Control [15]: 100%
- % Control [16]: 77%
- % Control [17]: 40%
- % Control [18]: 92%
- % Control [19]: 13%
- % Control [20]: 9.2%
- % Control [21]: 89%
- % Control [22]: 94%
- % Control [23]: 89%
- % Control [24]: 7.6%
- % Control [25]: 100%
- % Control [26]: 100%
- % Control [27]: 83%
- % Control [28]: 100%
- % Control [29]: 89%
- % Control [30]: 100%
- % Control [31]: 100%
- % Control [32]: 0.25%
- % Control [33]: 16%
- % Control [34]: 80%
- % Control [35]: 100%
- % Control [36]: 84%
- % Control [37]: 29%
- % Control [38]: 21%
- % Control [39]: 100%
- % Control [40]: 61%
- % Control [41]: 91%
